{
  "source": "patent US11298353B2",
  "about": "“Anti-inflammatory composition” (OSTEONEUROGEN INC., priority 2019, dated 2022)",
  "key": {"[1]": {"system": "CD14", "experiment": "CD14 expression in LPS-treated RAW264.7 cells (Western blot)", "assay_type": "cell-based", "conditions": "LPS 100 ng/ml + compound 50 μM, 5 to 15 minutes after LPS", "description": "In addition, in order to examine the effect of the compound of the present invention on the expression of CD14, the expression of CD14 in a group treated with LPS (100 ng/ml) and a group treated with 50 μM of the compound (Formula 2) of the present invention was compared by Western blot analysis."}, "[2]": {"system": "ONGHEPA1 cell line", "experiment": "NOX4 expression in TGF-β-treated hepatic stellate cells (real-time PCR, ICC)", "assay_type": "cell-based, mouse", "conditions": "TGF-β 10 ng/ml + compound 50 μM, real-time PCR and ICC", "description": "Using the ONGHEPA1 cell line (KCTC13086BP) which is a mouse hepatic stellate cell line, the expression of NOX4 in a group treated with TGF-β (10 ng/ml) and a group treated with TGF-β (10 ng/ml)+the compound (Formula 2; 50 μM) of the present invention was compared by real-time PCR and immunocytochemistry (ICC)."}, "[3]": {"system": "ONGHEPA1 cell line", "experiment": "Reactive oxygen species production in TGF-β-treated hepatic stellate cells (H2DCFDA staining)", "assay_type": "cell-based, mouse", "conditions": "TGF-β 10 ng/ml + compound 50 μM", "description": "(§1) Using the ONGHEPA1 cell line, the production of reactive oxygen species (ROS) in a group treated with TGF-β (10 ng/ml) and a group treated with TGF-β (10 ng/ml)+the compound (Formula 2; 50 μM) of the present invention was compared by cell staining H2DCFDA (ThermoFischer, D399) which is a reactive oxygen species staining reagent, and the expression of CCL2 and CCL7 was compared by real-time PCR."}, "[4]": {"system": "diseased human lung fibroblasts (DHLFs)", "experiment": "Transcriptome analysis of TGF-β-treated diseased human lung fibroblasts", "assay_type": "cell-based", "conditions": "TGF-β 10 ng/ml + compound 50 μM, genes up-regulated at p<0.005", "description": "Using diseased human lung fibroblasts (DHLFs) isolated from idiopathic pulmonary fibrosis patients, transcriptomes were analyzed comparatively between a group treated with TGF-β (10 ng/ml) and a group treated with TGF-β (10 ng/ml)+the compound (Formula 2) (50 μM) of the present invention."}, "[5]": {"system": "RAW264.7 cell line", "experiment": "Expression of inflammatory factors in LPS-treated macrophages (real-time PCR or ELISA)", "assay_type": "cell-based", "conditions": "LPS 100 ng/ml + compound 25 or 50 μM, 24 hours", "description": "In order to confirm the effect of the compound of the present invention in a special anti-inflammatory model, the anti-inflammatory effect of the compound of the present invention was examined using the RAW264.7 cell line (macrophage cell line).\nUsing the RAW264.7 cell line, the expression of inflammatory factors, INFα, IL-1β, CCL2 (MCP-1), CCL7 (MCP-3), CXCL2, CHOP and NOX1, in a group treated with LPS (lipopolysaccharide) and a group treated with LPS+the compound (Formula 2) of the present invention, was compared by real-time PCR or ELISA.\n(§2) Specifically, the RAW264.7 cell line was cultured in RPMI liquid medium, and then divided into a normal control group (untreated), a group treated with LPS (100 ng/ml), and a group treated with the compound of the present invention (cells treated with 100 ng/ml of LPS and treated with 25 or 50 μM of the compound of the present invention). Each of the test groups treated was incubated for 24 hours, and then total RNA was extracted from the cell of each test group and synthesized into cDNA per 1 μg of total RNA, and real-time PCR for each inflammatory factor was performed. The real-time PCR was performed for […], and then the obtained data were statistically processed using t-test."}, "[6]": {"system": "ONGHEPA1 cell line", "experiment": "CCL2 and CCL7 expression in TGF-β-treated hepatic stellate cells (real-time PCR)", "assay_type": "cell-based, mouse", "conditions": "TGF-β 10 ng/ml + compound 50 μM", "description": "as §1"}, "[7]": {"molecular_target": "T1, CD14 (Mus musculus, UniProt P10810)", "T1 construct": "endogenous in cells; host or cells: RAW264.7", "T1 sequence (P10810 16-336)": "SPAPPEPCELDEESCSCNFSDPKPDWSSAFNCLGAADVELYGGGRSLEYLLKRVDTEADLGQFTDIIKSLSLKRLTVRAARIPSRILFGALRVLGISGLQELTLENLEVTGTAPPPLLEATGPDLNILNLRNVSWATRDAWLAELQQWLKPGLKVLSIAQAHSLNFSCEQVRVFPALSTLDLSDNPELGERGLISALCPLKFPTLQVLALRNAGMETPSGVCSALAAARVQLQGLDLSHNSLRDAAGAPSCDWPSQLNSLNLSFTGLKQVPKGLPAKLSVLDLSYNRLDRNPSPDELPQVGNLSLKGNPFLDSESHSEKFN", "experiment": "CD14 FITC immunofluorescence staining in LPS-treated RAW264.7 cells", "assay_type": "cell-based", "conditions": "LPS 100 ng/ml + compound 50 μM", "description": "To verify this determination, the change in expression of an early inflammatory response stage factor (a factor involved in the early stage of LPS-induced inflammatory response) by treatment with the compound (Formula 2) of the present invention was examined by immunofluorescence staining using FITC.\nLooking at the control group in FIG. 9 (see FIG. 10 which is an enlarged view), it can be seen that FITC fluorescence is concentrated on the surface (membrane portion) of the cell. […] However, looking at the LPS-treated group (see FIG. 10 which is an enlarged view), it can be seen that the cell changes into a circular shape and FITC fluorescence is distributed throughout the cell without being concentrated on the surface of the cell. This means that when treated with LPS, CD14 did bind to LPS and endocytosis occurred. In the case of the group treated with the compound of the present invention (see FIG. 12 which is an enlarged view), the same pattern as that in the control group appeared despite LPS treatment."}, "[8]": {"system": "RAW264.7 cell line", "experiment": "TNFα expression in macrophages treated with various concentrations of LPS (real-time PCR)", "assay_type": "cell-based", "conditions": "LPS 100 ng/ml to 10 μg/ml + compound 50 μM", "description": "as §2\nIn addition, according to the same method as described above, the RAW264.7 cell line was treated with various concentrations (100 ng/ml to 10 μg/ml) of LPS, and the effect of treatment with 50 μM of the compound (Formula 2) of the present invention was examined."}},
  "data": [
    {"smiles": "COc1ccc(-c2cc(=O)c3c(O)c(OC)c(OCCN4CCNC(=O)C4)cc3o2)cc1OC", "note": "[Formula 2]", "values": [
      {"measurement": "increase in expression of CD14", "setting": "[1]", "result": "decreased"},
      {"measurement": "increase in the expression of NOX4", "setting": "[2]", "result": "inhibited"},
      {"measurement": "production of reactive oxygen species", "setting": "[3]", "result": "inhibited"},
      {"measurement": "inhibition of TGF-β up-regulated gene expression: NOX4", "setting": "[4]", "result": "selected genes included NOX4"},
      {"measurement": "expression of CCL2 (MCP-1)", "setting": "[5]", "result": "decreased"},
      {"measurement": "expression of CCL7 (MCP-3)", "setting": "[5]", "result": "decreased"},
      {"measurement": "expression of CHOP", "setting": "[5]", "result": "decreased"},
      {"measurement": "expression of CXCL2", "setting": "[5]", "result": "decreased"},
      {"measurement": "expression of IL-1β", "setting": "[5]", "result": "decreased"},
      {"measurement": "expression of INFα", "setting": "[5]", "result": "decreased"},
      {"measurement": "expression of NOX1", "setting": "[5]", "result": "decreased"},
      {"measurement": "expression of CCL2", "setting": "[6]", "result": "inhibited"},
      {"measurement": "expression of CCL7", "setting": "[6]", "result": "inhibited"},
      {"measurement": "activity of CD14 involved in the early stage of inflammatory response", "setting": "[7]", "result": "inhibited"},
      {"measurement": "interaction between CD14 and LPS (CD14 endocytosis pattern)", "setting": "[7]", "result": "blocked the interaction between CD14 and LPS"},
      {"measurement": "expression of TNFα", "setting": "[8]", "result": "blocked the expression of TNFα regardless of the concentration of LPS"}
    ]}
  ]
}
